Source: US11142515B2, “Pyrazolyl-ureas as kinase inhibitors” (RESPIVERT LIMITED, priority 2014, dated 2021)

Molecular target: T1, p38MAPKγ (MAPK12) (Homo sapiens, UniProt P53778)
T1 construct: purchased Life Technologies
T1 sequence (P53778 1-367): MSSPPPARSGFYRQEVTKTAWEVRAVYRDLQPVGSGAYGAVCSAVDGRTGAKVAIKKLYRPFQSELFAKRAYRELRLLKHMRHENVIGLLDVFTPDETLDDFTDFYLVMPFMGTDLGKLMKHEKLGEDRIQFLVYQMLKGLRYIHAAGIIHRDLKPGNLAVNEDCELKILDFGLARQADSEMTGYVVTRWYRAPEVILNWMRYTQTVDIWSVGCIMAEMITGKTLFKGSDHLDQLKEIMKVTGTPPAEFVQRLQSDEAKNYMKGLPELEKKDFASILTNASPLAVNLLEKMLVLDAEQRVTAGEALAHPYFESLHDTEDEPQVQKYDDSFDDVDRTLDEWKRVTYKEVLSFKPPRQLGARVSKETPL
Assay: p38 MAPKγ enzyme inhibition (Z-LYTE FRET)
Type: biochemical
Details: Table 2B, unit inferred; read-out: p38 MAPKγ (Enzyme Profile)
Method: The enzyme inhibitory activities of compounds disclosed herein were determined by FRET using synthetic peptides labelled with both donor and acceptor fluorophores (Z-LYTE, Life Technologies, Paisley, UK).
The inhibitory activities of compounds of the invention against p38MAPKγ (MAPK12: Life Technologies), were evaluated by determining the level of activation/phosphorylation of the target peptide. The enzyme (800 ng/mL, 2.5 μL) was incubated with the test compound (2.5 μL at either 40 μg/mL, 12 μg/mL, 4 μg/mL, 1.2 μg/mL, 0.4 μg/mL, 0.12 μg/mL, 0.04 μg/mL, 0.012 μg/mL, 0.004 μg/mL or 0.0012 μg/mL) for 2 h at RT. The FRET peptides (8 μM, 2.5 μL), and appropriate ATP solution (2.5 μL, 400 μM) were then added to the enzymes/compound mixtures and incubated for 1 h at RT. Development reagent (protease, 5 μL) was added for 1 h prior to detection in a fluorescence microplate reader (EnVision, Perkin Elmer).
In all cases, the site-specific protease cleaves non-phosphorylated peptide only and eliminates the FRET signal. Phosphorylation levels of each reaction were calculated using the ratio of coumarin emission (donor) over fluorescein emission (acceptor), for which low ratios indicate high phosphorylation and high ratios indicate low phosphorylation levels.

| Structure (SMILES) | IC50 |
| --- | --- |
| CO[C@H]1CCCN(CCNC(=O)c2cnc(Nc3cc(COc4ccc(NC(=O)Nc5cc(C(C)(C)C)nn5-c5ccc(C)cc5)c5ccccc45)ccn3)cn2)C1 [Example 54, (S)-5-((4-(((4-(3-(3-(tert-butyl)-1-(p-tolyl)-1H-pyrazol-5-yl)ureido)naphthalen-1-yl)oxy)methyl)pyridin-2-yl)amino)-N-(2-(3-methoxypiperidin-1-yl)ethyl)pyrazine-2-carboxamide] | 150 nM |
| CSc1cccc(-n2nc(C(C)(C)C)cc2NC(=O)Nc2ccc(OCc3ccnc(Nc4cnccn4)c3)c3ccccc23)c1 [Example 77] | 106 nM |
| Cc1ccc(-n2nc(C(C)(C)C)cc2NC(=O)Nc2ccc(OCc3ccnc(Nc4cnc(C(=O)NCC5CCN(C)CC5)cn4)c3)c3ccccc23)cc1 [Example 81] | 16 nM |
| Cc1ccc(-n2nc(C(C)(C)C)cc2NC(=O)Nc2ccc(OCc3ccnc(Nc4cnc(C(=O)N[C@@H]5CCN(C)C5)cn4)c3)c3ccccc23)cc1 [Example 82] | 46 nM |
| Cc1ccc(-n2nc(C(C)(C)C)cc2NC(=O)Nc2ccc(OCc3ccnc(Nc4cnc(C(=O)N[C@H]5CCN(C)C5)cn4)c3)c3ccccc23)cc1 [Example 83] | 39 nM |
| Cc1ccc(-n2nc(C(C)(C)C)cc2NC(=O)Nc2ccc(OCc3ccnc(Nc4cnc(C(=O)NCCN5CCC(O)CC5)cn4)c3)c3ccccc23)cc1 [Example 84] | 67 nM |
| Cc1ccc(-n2nc(C(C)(C)C)cc2NC(=O)Nc2ccc(OCc3ccnc(Nc4cnc(C(=O)NCCN5C[C@@H](C)O[C@@H](C)C5)cn4)c3)c3ccccc23)cc1 [Example 85] | 166 nM |
| Cc1ccc(-n2nc(C(C)(C)C)cc2NC(=O)Nc2ccc(OCc3ccnc(Nc4cnc(C(=O)NCCN5CCCC5)cn4)c3)c3ccccc23)cc1 [Example 86] | 19 nM |
| Cc1ccc(-n2nc(C(C)(C)C)cc2NC(=O)Nc2ccc(OCc3ccnc(Nc4cnc(C(=O)NC[C@H](O)CN5CCOCC5)cn4)c3)c3ccccc23)cc1 [Example 87] | 63 nM |
| Cc1ccc(-n2nc(C(C)(C)C)cc2NC(=O)Nc2ccc(OCc3ccnc(Nc4cnc(C(=O)N[C@H]5CCCN(C)C5)cn4)c3)c3ccccc23)cc1 [Example 88] | 233 nM |
| Cc1ccc(-n2nc(C(C)(C)C)cc2NC(=O)Nc2ccc(OCc3ccnc(Nc4cnc(C(=O)NC5CN(C)C5)cn4)c3)c3ccccc23)cc1 [Example 89] | 42 nM |
| Cc1ccc(-n2nc(C(C)(C)C)cc2NC(=O)Nc2ccc(OCc3ccnc(Nc4cnc(C(=O)NCCn5ccnc5C)cn4)c3)c3ccccc23)cc1 [Example 90] | 83 nM |
| COC(=O)N1CCN(CCNC(=O)c2cnc(Nc3cc(COc4ccc(NC(=O)Nc5cc(C(C)(C)C)nn5-c5ccc(C)cc5)c5ccccc45)ccn3)cn2)CC1 [Example 91] | 176 nM |
| COC1CCN(CCNC(=O)c2cnc(Nc3cc(COc4ccc(NC(=O)Nc5cc(C(C)(C)C)nn5-c5ccc(C)cc5)c5ccccc45)ccn3)cn2)CC1 [Example 92] | 117 nM |
| Cc1ccc(-n2nc(C(C)(C)C)cc2NC(=O)Nc2ccc(OCc3ccnc(Nc4cnc(C(=O)N[C@H]5COC[C@@H]5N5CCOCC5)cn4)c3)c3ccccc23)cc1 [Example 93] | 103 nM |
| Cc1ccc(-n2nc(C(C)(C)C)cc2NC(=O)Nc2ccc(OCc3ccnc(Nc4cnc(C(=O)NCCN5CCC(F)(F)CC5)cn4)c3)c3ccccc23)cc1 [Example 94] | 772 nM |
| Cc1ccc(-n2nc(C(C)(C)C)cc2NC(=O)Nc2ccc(OCc3ccnc(Nc4cnc(C(=O)NCCN5CCC[C@@H](O)C5)cn4)c3)c3ccccc23)cc1 [Example 95] | 55 nM |
| Cc1ccc(-n2nc(C(C)(C)C)cc2NC(=O)Nc2ccc(OCc3ccnc(Nc4cnc(C(=O)NCCN5CCC(F)CC5)cn4)c3)c3ccccc23)cc1 [Example 96] | 269 nM |

| Structure (SMILES) | IC50 |
| --- | --- |
| Cc1ccc(-n2nc(C(C)(C)C)cc2NC(=O)Nc2ccc(OCc3ccnc(Nc4cnc(C(=O)NCCN5CC[C@@H](O)C5)cn4)c3)c3ccccc23)cc1 [Example 97] | 34 nM |
| CO[C@@H]1CCN(CCNC(=O)c2cnc(Nc3cc(COc4ccc(NC(=O)Nc5cc(C(C)(C)C)nn5-c5ccc(C)cc5)c5ccccc45)ccn3)cn2)C1 [Example 98] | 116 nM |
| COCc1cccc(-n2nc(C(C)(C)C)cc2NC(=O)Nc2ccc(OCc3ccnc(Nc4cnc(C(=O)NCC5CCN(C)CC5)cn4)c3)c3ccccc23)c1 [Example 99] | 11 nM |
| Cc1ccc(-n2nc(C(C)(C)C)cc2NC(=O)Nc2ccc(OCc3ccnc(Nc4cnc(C(=O)NCCN5CC[C@@H](F)C5)cn4)c3)c3ccccc23)cc1 [Example 100] | 202 nM |
| Cc1ccc(-n2nc(C(C)(C)C)cc2NC(=O)Nc2ccc(OCc3ccnc(Nc4cnc(C(=O)NCCN5CCC[C@H](F)C5)cn4)c3)c3ccccc23)cc1 [Example 101] | 374 nM |
| CC(=O)N1CCN(CCNC(=O)c2cnc(Nc3cc(COc4ccc(NC(=O)Nc5cc(C(C)(C)C)nn5-c5ccc(C)cc5)c5ccccc45)ccn3)cn2)CC1 [Example 102] | 46 nM |
| Cc1ccc(-n2nc(C(C)(C)C)cc2NC(=O)Nc2ccc(OCc3ccnc(Nc4cnc(C(=O)NC5CCN(CCO)CC5)cn4)c3)c3ccccc23)cc1 [Example 103] | 72 nM |
| COc1ccc(-n2nc(C(C)(C)C)cc2NC(=O)Nc2ccc(OCc3ccnc(Nc4cnc(C)c(C)n4)c3)c3ccccc23)cc1F [Example 252, 1-(3-(tert-butyl)-1-(3-fluoro-4-methoxyphenyl)-1H-pyrazol-5-yl)-3-(4-((2-((5,6-dimethylpyrazin-2-yl)amino)pyridin-4-yl)methoxy)naphthalen-1-yl)urea] | > 15100 nM |
| CC(C)(C)c1cc(NC(=O)Nc2ccc(OCc3ccnc(Nc4cnc(CO)cn4)c3)c3ccccc23)n(-c2cccc(F)c2)n1 [Example 253, 1-(3-(tert-butyl)-1-(3-fluoro-phenyl)-1H-pyrazol-5-yl)-3-(4-((2-((5-(hydroxymethyl)pyrazin-2-yl)amino)pyridin-4-yl)methoxy)naphthalen-1-yl)urea] | 75 nM |
| CCc1cncc(Nc2cc(COc3ccc(NC(=O)Nc4cc(C(C)(C)C)nn4-c4cc(C)cc(F)c4)c4ccccc34)ccn2)n1 [Example 254, 1-(3-(tert-butyl)-1-(3-fluoro-5-methylphenyl)-1H-pyrazol-5-yl)-3-(4-((2-((6-ethyl-pyrazin-2-yl)amino)pyridin-4-yl)methoxy)naphthalen-1-yl)urea] | 1930 nM |
| CCCc1cncc(Nc2cc(COc3ccc(NC(=O)Nc4cc(C(C)(C)C)nn4-c4cccc(F)c4)c4ccccc34)ccn2)n1 [Example 255, 1-(3-(tert-butyl)-1-(3-fluoro-phenyl)-1H-pyrazol-5-yl)-3-(4-((2-((6-propylpyrazin-2-yl)amino)pyridin-4-yl)methoxy)naphthalen-1-yl) urea] | > 15500 nM |
| CC(C)(C)c1cc(NC(=O)Nc2ccc(OCc3ccnc(Nc4cnc(CO)cn4)c3)c3ccccc23)n(-c2cccc(Cl)c2)n1 [Example 256, 1-(3-(tert-butyl)-1-(3-chloro-phenyl)-1H-pyrazol-5-yl)-3-(4-((2-((5-(hydroxymethyl)pyrazin-2-yl)amino)pyridin-4-yl)methoxy)naphthalen-1-yl)urea] | > 15400 nM |
| CCN1CCN(C(=O)c2cnc(Nc3cc(COc4ccc(NC(=O)Nc5cc(C(C)(C)C)nn5-c5ccc(C)cc5)c5ccccc45)ccn3)cn2)CC1 [Example 271, 1-(3-(tert-butyl)-1-(p-tolyl)-1H-pyrazol-5-yl)-3-(4-((2-((5-(4-ethylpiperazine-1-carbonyl)pyrazin-2-yl)amino)pyridin-4-yl)methoxy)naphthalen-1-yl)urea] | 108 nM |
| Cc1ccc(-n2nc(C(C)(C)C)cc2NC(=O)Nc2ccc(OCc3ccnc(Nc4cnc(C(=O)N5CCC(N(C)C)CC5)cn4)c3)c3ccccc23)cc1 [Example 272] | 4 nM |
| Cc1ccc(-n2nc(C(C)(C)C)cc2NC(=O)Nc2ccc(OCc3ccnc(Nc4cnc(C(=O)N5CCN(CCN(C)C)CC5)cn4)c3)c3ccccc23)cc1 [Example 273, 1-(3-(tert-butyl)-1-(p-tolyl)-1H-pyrazol-5-yl)-3-(4-((2-((5-(4-(2-(dimethylamino)ethyl)piperazine-1-carbonyl)pyrazin-2-yl)amino)pyridin-4-yl)methoxy)naphthalen-1-yl)urea] | 4.7 nM |
| Cc1ccc(-n2nc(C(C)(C)C)cc2NC(=O)Nc2ccc(OCc3ccnc(Nc4cnc(C(=O)N5CCCN(C)CC5)cn4)c3)c3ccccc23)cc1 [Example 274, 1-(3-(tert-butyl)-1-(p-tolyl)-1H-pyrazol-5-yl)-3-(4-((2-((5-(4-methyl-1,4-diazepane-1-carbonyl)pyrazin-2-yl)amino)pyridin-4-yl)methoxy)naphthalen-1-yl)urea] | 13 nM |
| Cc1ccc(-n2nc(C(C)(C)C)cc2NC(=O)Nc2ccc(OCc3ccnc(Nc4cnc(C(=O)N5CCN6CCC[C@H]6C5)cn4)c3)c3ccccc23)cc1 [Example 275, (S)-1-(3-(tert-butyl)-1-(p-tolyl)-1H-pyrazol-5-yl)-3-(4-((2-((5-(octahydropyrrolo [1,2-a]pyrazine-2-carbonyl)pyrazin-2-yl)amino)pyridin-4-yl)methoxy)naphthalen-1-yl)urea] | 129 nM |
